Here are results for ten compounds from ChEMBL document CHEMBL2203208, “Synthesis and structure-activity relationships of dual PI3K/mTOR inhibitors based on a 4-amino-6-methyl-1,3,5-triazine sulfonamide scaffold” (Bioorg Med Chem Lett, 2012).

pIC50, pKi: −log10 of the molar value. In brackets after ≈: the same amount, converted by molar mass.

In data set [1] the target is Phosphatidylinositol 4,5-bisphosphate 3-kinase catalytic subunit alpha isoform (Homo sapiens, UniProt P42336).
Description: Inhibition of human N-terminal polyHis-tagged PI3K p110alpha expressed in baculovirus infected Hi5 cells using Phosphatidylinositol-4,5-bisphosphate as substrate after 20 mins by AlphaScreen assay
A short description of data set [2]: physchem. As to conditions: simulated intestinal fluid.
Description: Equilibrium solubility of the compound in simulated intestinal fluid after 48 to 72 hrs
The nature of data set [3]: physchem. As to conditions: phosphate buffered saline.
Description: Equilibrium solubility of the compound in phosphate buffered saline after 48 to 72 hrs
Data set [4] in a line: physchem. Particulars: 0.01N HCl.
Description: Equilibrium solubility of the compound in 0.01N HCl after 48 to 72 hrs
Data set [5] concerns the target Phosphatidylinositol 4,5-bisphosphate 3-kinase catalytic subunit gamma isoform (Homo sapiens, UniProt P48736). On the set-up: species or system BTI-TN-5B1-4.
The target of data set [6] is Serine/threonine-protein kinase mTOR (Homo sapiens, UniProt P42345).
Description: Inhibition of recombinant N-terminal GST-tagged mTOR using GFP-4EBP as substrate after 90 mins by TR-FRET assay
Data set [7] deals with T1, Phosphatidylinositol 4,5-bisphosphate 3-kinase catalytic subunit delta isoform (Homo sapiens, UniProt O00329).
T1 sequence (O00329 whole entry): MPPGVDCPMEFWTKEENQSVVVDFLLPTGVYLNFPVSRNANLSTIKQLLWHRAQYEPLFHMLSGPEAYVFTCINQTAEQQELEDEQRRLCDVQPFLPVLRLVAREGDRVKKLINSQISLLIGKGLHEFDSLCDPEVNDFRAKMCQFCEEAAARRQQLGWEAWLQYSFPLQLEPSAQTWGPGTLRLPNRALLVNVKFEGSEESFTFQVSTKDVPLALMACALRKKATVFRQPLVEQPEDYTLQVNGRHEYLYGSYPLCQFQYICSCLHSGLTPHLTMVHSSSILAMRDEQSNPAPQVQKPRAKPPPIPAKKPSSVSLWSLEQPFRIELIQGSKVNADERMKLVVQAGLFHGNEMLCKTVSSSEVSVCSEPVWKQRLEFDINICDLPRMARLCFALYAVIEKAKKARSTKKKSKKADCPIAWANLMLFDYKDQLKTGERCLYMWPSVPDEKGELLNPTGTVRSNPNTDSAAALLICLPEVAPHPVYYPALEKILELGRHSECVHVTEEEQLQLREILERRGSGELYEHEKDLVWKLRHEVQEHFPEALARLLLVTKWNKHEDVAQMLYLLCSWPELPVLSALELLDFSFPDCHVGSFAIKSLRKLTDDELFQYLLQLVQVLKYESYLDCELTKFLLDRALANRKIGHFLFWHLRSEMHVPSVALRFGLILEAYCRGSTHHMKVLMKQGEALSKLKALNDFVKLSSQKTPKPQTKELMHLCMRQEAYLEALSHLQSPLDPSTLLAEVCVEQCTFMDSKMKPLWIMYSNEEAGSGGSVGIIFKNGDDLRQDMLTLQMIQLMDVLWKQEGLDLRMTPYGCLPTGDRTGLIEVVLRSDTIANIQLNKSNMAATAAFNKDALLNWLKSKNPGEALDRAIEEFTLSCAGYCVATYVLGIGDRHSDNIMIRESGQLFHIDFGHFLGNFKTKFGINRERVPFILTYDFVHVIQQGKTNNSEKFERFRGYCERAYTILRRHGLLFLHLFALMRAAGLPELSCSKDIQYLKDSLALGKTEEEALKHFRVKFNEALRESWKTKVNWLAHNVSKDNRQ
Description: Inhibition of human N-terminal polyHis-tagged PI3K p110delta expressed in baculovirus infected Hi5 cells using Phosphatidylinositol-4,5-bisphosphate as substrate after 20 mins by AlphaScreen assay

Data set [8] deals with Phosphatidylinositol 4,5-bisphosphate 3-kinase catalytic subunit beta isoform (Homo sapiens, UniProt P42338).
Sequence of Phosphatidylinositol 4,5-bisphosphate 3-kinase catalytic subunit beta isoform (P42338 whole entry, canonical isoform): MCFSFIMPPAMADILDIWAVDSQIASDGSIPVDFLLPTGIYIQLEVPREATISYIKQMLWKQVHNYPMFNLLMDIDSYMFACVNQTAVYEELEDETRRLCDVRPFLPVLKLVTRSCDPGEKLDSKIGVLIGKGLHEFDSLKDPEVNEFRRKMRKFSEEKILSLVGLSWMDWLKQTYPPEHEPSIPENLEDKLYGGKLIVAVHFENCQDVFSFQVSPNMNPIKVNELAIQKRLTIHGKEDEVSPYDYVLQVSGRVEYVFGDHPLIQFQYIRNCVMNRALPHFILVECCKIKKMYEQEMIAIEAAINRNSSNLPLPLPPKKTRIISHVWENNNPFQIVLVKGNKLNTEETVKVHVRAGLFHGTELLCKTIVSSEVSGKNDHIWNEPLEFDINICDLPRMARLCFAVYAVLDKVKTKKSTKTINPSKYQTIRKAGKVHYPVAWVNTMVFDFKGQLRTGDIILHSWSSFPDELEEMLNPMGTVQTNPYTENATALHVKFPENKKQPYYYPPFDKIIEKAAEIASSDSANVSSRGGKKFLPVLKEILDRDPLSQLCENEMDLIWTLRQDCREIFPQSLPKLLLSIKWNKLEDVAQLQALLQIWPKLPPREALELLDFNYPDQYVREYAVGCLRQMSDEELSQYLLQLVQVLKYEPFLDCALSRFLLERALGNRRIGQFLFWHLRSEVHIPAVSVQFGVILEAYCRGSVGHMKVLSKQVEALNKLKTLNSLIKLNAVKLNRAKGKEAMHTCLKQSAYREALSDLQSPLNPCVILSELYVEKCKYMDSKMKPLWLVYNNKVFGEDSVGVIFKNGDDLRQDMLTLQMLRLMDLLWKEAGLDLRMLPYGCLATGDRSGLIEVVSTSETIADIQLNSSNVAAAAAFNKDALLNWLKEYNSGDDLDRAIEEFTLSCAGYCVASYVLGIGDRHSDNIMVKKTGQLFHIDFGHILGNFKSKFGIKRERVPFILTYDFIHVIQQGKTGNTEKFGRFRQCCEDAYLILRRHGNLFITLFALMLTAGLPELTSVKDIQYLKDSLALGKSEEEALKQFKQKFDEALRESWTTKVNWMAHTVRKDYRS
Description: Inhibition of human N-terminal polyHis-tagged PI3K p110beta expressed in baculovirus infected Hi5 cells using Phosphatidylinositol-4,5-bisphosphate as substrate after 20 mins by AlphaScreen assay
The nature of data set [9]: in vivo. Particulars: Sprague-Dawley, rat, plasma, po, 2 mg/kg.
The nature of data set [10]: in vivo. As to conditions: Sprague-Dawley, rat, po, 2 mg/kg.
Data set [11] is described as follows: in vivo. Particulars: Sprague-Dawley, rat, iv, 1 mg/kg.
Description: Mean residence time in Sprague-Dawley rat at 1 mg/kg, iv
Data set [12] is described as follows: in vivo. As to conditions: Sprague-Dawley, rat, iv, 1 mg/kg. The source holds these as a separate data set.
Data set [13] in a line: in vivo. As to conditions: Sprague-Dawley, rat, iv, 1 mg/kg. The source holds these as a separate data set.
Description: Clearance in Sprague-Dawley rat at 1 mg/kg, iv
A short description of data set [14]: in vitro. As to conditions: human, liver microsomes. In general terms: Microsomes from liver hold many membrane-bound enzymes, among them those of drug oxidation.
Description: Clearance in human liver microsomes at 1 uM after 30 mins in presence of NADPH
The nature of data set [15]: in vitro. As to conditions: rat, liver microsomes.
Description: Clearance in rat liver microsomes at 1 uM after 30 mins in presence of NADPH

For orientation: pKi means the negative decadic logarithm of the Ki, by convention in mol/L. The low end stands for a high Ki, the high end for a low Ki. By thermodynamic solubility is commonly meant the concentration in solution at equilibrium with solid. For orientation: pIC50 means the negative decadic logarithm of the IC50, by convention in mol/L. The low end stands for a large IC50, the high end for a small IC50. The AUC is the area under the concentration-time curve, a measure of exposure. Low values mean low exposure, high ones high exposure. The term bioavailability denotes the share of a dose that reaches the circulation, judged against a reference dose that is usually intravenous. For orientation: MRT means the average time that molecules of a dose stay in the body. One may read the Vd as a proportionality between amount in the body and measured concentration, not a real space. High values mean extensive tissue distribution, low ones confinement near the circulation. For orientation: clearance means a measure of how efficiently the substance is removed, as volume per time. A higher clearance goes with efficient removal. For orientation: microsomal CLint means the rate of metabolic loss divided by the concentration.

Sequence of Phosphatidylinositol 4,5-bisphosphate 3-kinase catalytic subunit alpha isoform (P42336 whole entry, canonical isoform): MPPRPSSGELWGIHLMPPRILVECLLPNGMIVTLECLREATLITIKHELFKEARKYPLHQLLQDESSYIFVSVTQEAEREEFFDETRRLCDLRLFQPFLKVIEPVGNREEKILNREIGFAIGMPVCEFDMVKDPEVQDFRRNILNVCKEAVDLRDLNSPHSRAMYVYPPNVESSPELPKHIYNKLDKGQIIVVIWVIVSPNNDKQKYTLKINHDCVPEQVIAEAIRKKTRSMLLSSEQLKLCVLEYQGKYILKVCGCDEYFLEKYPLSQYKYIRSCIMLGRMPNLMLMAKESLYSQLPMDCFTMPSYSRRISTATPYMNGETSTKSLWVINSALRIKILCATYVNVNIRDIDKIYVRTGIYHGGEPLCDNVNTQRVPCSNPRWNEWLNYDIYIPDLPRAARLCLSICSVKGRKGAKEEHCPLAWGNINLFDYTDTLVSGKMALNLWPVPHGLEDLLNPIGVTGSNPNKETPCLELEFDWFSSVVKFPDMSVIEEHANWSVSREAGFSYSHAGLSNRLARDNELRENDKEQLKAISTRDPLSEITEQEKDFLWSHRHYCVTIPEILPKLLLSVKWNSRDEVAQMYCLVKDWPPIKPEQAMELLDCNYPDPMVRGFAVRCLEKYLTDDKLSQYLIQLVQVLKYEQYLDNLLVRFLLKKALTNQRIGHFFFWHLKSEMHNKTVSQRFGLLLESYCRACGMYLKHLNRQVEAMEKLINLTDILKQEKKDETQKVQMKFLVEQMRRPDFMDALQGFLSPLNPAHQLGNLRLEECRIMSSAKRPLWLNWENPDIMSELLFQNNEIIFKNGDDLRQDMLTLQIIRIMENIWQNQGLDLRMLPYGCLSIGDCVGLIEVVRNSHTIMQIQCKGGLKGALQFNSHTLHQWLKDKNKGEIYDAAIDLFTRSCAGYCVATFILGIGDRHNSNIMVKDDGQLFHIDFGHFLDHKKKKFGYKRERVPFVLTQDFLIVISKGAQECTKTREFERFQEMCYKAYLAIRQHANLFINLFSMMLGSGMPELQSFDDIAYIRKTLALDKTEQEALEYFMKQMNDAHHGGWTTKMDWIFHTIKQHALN
Sequence of Phosphatidylinositol 4,5-bisphosphate 3-kinase catalytic subunit gamma isoform (P48736 whole entry, canonical isoform): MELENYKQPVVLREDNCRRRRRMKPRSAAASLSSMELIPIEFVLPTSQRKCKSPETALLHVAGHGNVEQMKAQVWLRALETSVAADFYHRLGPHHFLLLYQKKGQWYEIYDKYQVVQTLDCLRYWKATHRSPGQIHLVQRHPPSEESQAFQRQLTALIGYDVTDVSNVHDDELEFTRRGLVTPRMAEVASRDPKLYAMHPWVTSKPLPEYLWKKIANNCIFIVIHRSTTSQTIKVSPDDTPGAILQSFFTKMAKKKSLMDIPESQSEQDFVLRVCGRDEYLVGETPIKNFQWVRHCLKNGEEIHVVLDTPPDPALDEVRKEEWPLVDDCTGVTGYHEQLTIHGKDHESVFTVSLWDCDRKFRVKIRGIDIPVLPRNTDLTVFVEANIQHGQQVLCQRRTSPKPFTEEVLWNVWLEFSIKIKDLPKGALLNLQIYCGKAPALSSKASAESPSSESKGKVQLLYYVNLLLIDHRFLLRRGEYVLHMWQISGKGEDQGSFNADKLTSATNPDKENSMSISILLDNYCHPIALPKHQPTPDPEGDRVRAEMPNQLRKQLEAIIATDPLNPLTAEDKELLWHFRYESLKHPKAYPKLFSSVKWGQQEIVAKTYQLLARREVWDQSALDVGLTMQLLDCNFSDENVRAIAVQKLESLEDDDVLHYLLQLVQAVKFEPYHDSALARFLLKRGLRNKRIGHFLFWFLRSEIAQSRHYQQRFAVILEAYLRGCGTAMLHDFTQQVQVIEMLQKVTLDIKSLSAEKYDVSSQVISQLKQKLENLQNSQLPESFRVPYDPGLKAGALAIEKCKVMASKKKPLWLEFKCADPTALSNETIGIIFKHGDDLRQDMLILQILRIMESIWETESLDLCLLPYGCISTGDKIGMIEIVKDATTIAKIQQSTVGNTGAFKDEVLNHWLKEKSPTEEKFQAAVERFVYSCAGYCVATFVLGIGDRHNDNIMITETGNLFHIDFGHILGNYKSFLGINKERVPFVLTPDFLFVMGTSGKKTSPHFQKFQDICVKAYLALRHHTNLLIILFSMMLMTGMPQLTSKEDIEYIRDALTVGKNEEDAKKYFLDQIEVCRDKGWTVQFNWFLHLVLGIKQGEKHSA

`Cc1nc(N)nc(-c2cccnc2Nc2cnc(Cl)c(N)c2)n1` showed a pKi in data set [1] of 6.44.
The compound `Cc1nc(N)nc(-c2cccnc2Nc2cnc(Cl)c(NS(=O)(=O)N(C)C)c2)n1` gave a pKi in data set [1] of 7.96. The solubility (thermodynamic) is 1000 µg/mL (≈ 2290 µM) in the data set “physchem [2]”, 3600 µg/mL (≈ 8260 µM) in “physchem [3]” and 4700 µg/mL (≈ 10800 µM) in “physchem [4]”.
The compound `Cc1nc(N)nc(-c2cc(Cl)cnc2Nc2cnc(Cl)c(NS(=O)(=O)c3cccnc3)c2)n1` showed a pKi in [1] of 7.89.
With `COCCN(C)S(=O)(=O)Nc1cc(Nc2ncc(Cl)cc2-c2nc(C)nc(N)n2)cnc1Cl`, in data set [1], the pKi is 7.54. Besides, the results for the solubility (thermodynamic) in the data set “physchem [2]”, in “physchem [3]” and in the data set “physchem [4]” were 3200 µg/mL (≈ 6220 µM), 1000 µg/mL (≈ 1940 µM) and 3200 µg/mL (≈ 6220 µM), respectively.
`Cc1nc(N)nc(-c2cc(Cl)cnc2Nc2cnc(Cl)c(N(C)S(C)(=O)=O)c2)n1` showed a pKi in data set [1] of 6.51.
For the compound `Cc1nc(N)nc(-c2cc(Cl)cnc2Nc2cnc(Cl)c(NS(=O)(=O)N3CCOCC3)c2)n1`, the pKi in [1] is 8.07. For the same compound, the solubility (thermodynamic) in “physchem [2]” was 11100 µg/mL (≈ 21700 µM); in “physchem [3]” it was 1000 µg/mL (≈ 1950 µM); in “physchem [4]” it was 1000 µg/mL (≈ 1950 µM).
For `COc1cnc(Nc2cnc(Cl)c(NS(=O)(=O)N3CCOCC3)c2)c(-c2nc(C)nc(N)n2)c1`, in data set [1], the pKi was 7.89. The solubility (thermodynamic) is 1 µg/mL (≈ 1.97 µM) in “physchem [2]”, 14 µg/mL (≈ 27.6 µM) in “physchem [3]” and 5 µg/mL (≈ 9.84 µM) in the data set “physchem [4]”.
As to `COc1cnc(Nc2cnc(Cl)c(NS(=O)(=O)N(C)C)c2)c(-c2nc(C)nc(N)n2)c1`, the pKi in [5] is 8.66; in [7], 8.96; in data set [8], 8.33; in data set [1] it was 8.03. In addition, in data set [6], the pIC50 was 7.13. Further, the AUC in “in vivo [9]” amounted to 859 ng·h/mL. The compound also registered a bioavailability in “in vivo [10]” of 22%. Also, in “in vivo [11]”, the MRT worked out at 2 h. The Vd in “in vivo [12]” was determined as 1.01 L/kg. The compound further gave a clearance in “in vivo [13]” of 8.67 mL/min/kg. Besides, the microsomal CLint at 0.5 h, 1 µM in “in vitro [14]” was determined as 26 µL/min/mg; in the data set “in vitro [15]”, 20 µL/min/mg. The solubility (thermodynamic) in the data set “physchem [2]” was 1 µg/mL (≈ 2.15 µM); in the data set “physchem [3]”, 4 µg/mL (≈ 8.59 µM); in “physchem [4]” it was 3 µg/mL (≈ 6.44 µM).
For `Cc1nc(N)nc(-c2cccnc2Nc2cnc(Cl)c(NS(=O)(=O)C3CC3)c2)n1`, the pKi in data set [1] was 7.96. The thermodynamic solubility is 3600 µg/mL (≈ 8320 µM) in “physchem [2]”, 1000 µg/mL (≈ 2310 µM) in “physchem [3]” and 1000 µg/mL (≈ 2310 µM) in the data set “physchem [4]”.
The compound `Cc1nc(N)nc(-c2cc(Cl)cnc2Nc2cnc(Cl)c(NS(C)(=O)=O)c2)n1` gave a pKi in data set [1] of 8.46. For the same compound, the thermodynamic solubility in the data set “physchem [2]”, in the data set “physchem [3]” and in the data set “physchem [4]” was 1000 µg/mL (≈ 2270 µM) in each case.
